According to ChEMBL document CHEMBL5532747, “Potent, Selective, and Orally Bioavailable Quinazoline-Based STK17A/B Dual Inhibitors” (ACS Med Chem Lett, 2024):

Assays:
[1] = biological target: T1, Serine/threonine-protein kinase 17A (Homo sapiens, UniProt Q9UEE5); test: Inhibition of STK17A (unknown origin) in presence of ATP
T1 sequence (Q9UEE5 whole entry): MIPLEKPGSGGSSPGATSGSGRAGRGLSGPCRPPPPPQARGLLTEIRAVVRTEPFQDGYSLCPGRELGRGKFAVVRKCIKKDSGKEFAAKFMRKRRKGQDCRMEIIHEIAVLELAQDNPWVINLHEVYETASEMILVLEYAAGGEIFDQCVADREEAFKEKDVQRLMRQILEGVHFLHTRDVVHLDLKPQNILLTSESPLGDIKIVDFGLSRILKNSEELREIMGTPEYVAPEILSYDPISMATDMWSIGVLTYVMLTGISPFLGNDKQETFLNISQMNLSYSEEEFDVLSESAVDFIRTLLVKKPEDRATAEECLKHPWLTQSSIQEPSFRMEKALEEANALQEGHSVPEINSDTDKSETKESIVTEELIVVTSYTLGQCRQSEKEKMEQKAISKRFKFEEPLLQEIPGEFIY

[2] = biological target: T2, Myosin light chain kinase family member 4 (Homo sapiens, UniProt Q86YV6); test: Inhibition of MYLK4 (unknown origin) in presence of ATP
T2 sequence (Q86YV6 whole entry): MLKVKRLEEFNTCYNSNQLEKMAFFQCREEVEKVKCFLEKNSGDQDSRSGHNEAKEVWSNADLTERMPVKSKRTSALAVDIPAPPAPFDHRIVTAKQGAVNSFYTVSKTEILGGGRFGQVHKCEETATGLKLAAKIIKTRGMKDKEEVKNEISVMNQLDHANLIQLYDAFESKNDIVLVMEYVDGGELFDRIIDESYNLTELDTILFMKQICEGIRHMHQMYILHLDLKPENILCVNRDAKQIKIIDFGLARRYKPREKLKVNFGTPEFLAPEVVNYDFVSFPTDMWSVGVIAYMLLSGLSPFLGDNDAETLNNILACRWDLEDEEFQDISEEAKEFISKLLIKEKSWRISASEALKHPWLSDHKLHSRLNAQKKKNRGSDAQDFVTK

CYP1A2 = biological target: T3, CYP1A2 (Homo sapiens, UniProt P05177); test: Inhibition of CYP1A2 (unknown origin) using phenacetin as substrate at 10 uM by cocktail based assay relative to control; type: ADME; conditions: probe phenacetin
T3 sequence (P05177 whole entry): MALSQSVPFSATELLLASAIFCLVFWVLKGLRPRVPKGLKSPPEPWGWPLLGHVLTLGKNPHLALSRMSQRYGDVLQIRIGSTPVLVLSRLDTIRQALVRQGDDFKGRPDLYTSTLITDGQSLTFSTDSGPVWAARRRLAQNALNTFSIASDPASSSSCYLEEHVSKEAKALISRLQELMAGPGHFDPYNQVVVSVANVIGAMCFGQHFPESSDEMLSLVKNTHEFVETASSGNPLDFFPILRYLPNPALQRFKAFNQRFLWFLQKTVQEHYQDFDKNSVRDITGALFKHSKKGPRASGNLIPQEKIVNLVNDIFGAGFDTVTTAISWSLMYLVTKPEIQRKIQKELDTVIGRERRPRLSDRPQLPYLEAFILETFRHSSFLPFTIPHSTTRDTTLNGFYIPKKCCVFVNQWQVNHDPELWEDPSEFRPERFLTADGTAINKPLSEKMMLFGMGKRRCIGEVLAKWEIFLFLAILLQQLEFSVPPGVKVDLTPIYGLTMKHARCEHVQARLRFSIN

CYP2C9 = CYP2C9 (Homo sapiens, UniProt P11712); test: Inhibition of CYP2C9 (unknown origin) using tolbutamide as substrate at 10 uM by cocktail based assay relative to control; type: ADME; conditions: probe tolbutamide
Chain of CYP2C9 (P11712 whole entry): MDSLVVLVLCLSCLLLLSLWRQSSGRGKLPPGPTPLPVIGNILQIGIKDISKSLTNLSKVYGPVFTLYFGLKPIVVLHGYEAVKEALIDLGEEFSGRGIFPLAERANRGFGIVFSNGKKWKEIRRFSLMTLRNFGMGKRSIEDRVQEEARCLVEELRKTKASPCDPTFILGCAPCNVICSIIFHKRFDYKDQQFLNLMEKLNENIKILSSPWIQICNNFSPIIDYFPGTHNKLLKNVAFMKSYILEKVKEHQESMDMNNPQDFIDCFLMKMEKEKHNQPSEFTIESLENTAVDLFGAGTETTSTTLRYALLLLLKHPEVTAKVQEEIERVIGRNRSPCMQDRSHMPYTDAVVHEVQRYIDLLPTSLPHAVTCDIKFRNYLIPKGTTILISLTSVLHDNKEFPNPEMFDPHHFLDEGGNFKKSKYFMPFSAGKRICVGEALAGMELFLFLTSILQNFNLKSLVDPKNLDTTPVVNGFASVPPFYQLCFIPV

CYP2D6 = CYP2D6 (Homo sapiens, UniProt P10635); test: Inhibition of CYP2D6 (unknown origin) using bufuralol as substrate at 10 uM by cocktail based assay relative to control; type: ADME; conditions: probe bufuralol
Chain of CYP2D6 (P10635 whole entry): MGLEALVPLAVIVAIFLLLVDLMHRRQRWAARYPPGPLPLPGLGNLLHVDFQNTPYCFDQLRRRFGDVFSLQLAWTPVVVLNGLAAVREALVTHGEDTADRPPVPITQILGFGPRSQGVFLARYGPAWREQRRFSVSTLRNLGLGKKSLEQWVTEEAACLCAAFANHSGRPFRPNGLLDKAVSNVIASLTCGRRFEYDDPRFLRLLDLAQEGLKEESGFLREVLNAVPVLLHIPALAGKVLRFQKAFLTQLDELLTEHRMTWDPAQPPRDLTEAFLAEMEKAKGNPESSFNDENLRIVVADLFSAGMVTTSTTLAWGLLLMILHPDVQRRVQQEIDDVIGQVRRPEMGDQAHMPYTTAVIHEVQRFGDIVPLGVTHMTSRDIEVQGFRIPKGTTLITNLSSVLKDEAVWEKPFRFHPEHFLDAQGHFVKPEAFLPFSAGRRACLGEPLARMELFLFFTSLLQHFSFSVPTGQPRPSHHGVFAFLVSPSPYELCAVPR

CYP3A4 = CYP3A4 (Homo sapiens, UniProt P08684); test: Inhibition of CYP3A4 (unknown origin) using midazolam as substrate at 10 uM by cocktail based assay relative to control; type: ADME; conditions: probe midazolam
Chain of CYP3A4 (P08684 whole entry): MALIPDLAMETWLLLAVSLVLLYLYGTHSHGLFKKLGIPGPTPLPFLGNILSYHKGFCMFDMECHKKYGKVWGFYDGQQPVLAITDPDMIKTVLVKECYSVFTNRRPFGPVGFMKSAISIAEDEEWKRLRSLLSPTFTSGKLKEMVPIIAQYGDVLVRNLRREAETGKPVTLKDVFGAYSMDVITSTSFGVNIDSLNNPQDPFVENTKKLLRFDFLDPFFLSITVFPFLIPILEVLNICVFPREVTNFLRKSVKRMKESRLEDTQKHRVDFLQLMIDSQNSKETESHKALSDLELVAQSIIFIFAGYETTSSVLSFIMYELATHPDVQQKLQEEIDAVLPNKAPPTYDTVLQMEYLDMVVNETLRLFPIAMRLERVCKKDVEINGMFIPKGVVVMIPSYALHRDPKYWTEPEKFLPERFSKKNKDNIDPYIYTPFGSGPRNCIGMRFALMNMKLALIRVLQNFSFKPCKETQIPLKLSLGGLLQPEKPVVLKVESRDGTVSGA

[3] = Microsomal stability in human liver microsomes assessed as half life; type: ADME, Microsome
[4] = Microsomal stability in mouse liver microsomes assessed as half life; type: ADME, Microsome
[5] = biological target: T4, Dual specificity protein kinase CLK4 (Homo sapiens, UniProt Q9HAZ1); test: Inhibition of CLK4 (unknown origin) in presence of ATP
Target sequence in this assay (Q9HAZ1 whole entry): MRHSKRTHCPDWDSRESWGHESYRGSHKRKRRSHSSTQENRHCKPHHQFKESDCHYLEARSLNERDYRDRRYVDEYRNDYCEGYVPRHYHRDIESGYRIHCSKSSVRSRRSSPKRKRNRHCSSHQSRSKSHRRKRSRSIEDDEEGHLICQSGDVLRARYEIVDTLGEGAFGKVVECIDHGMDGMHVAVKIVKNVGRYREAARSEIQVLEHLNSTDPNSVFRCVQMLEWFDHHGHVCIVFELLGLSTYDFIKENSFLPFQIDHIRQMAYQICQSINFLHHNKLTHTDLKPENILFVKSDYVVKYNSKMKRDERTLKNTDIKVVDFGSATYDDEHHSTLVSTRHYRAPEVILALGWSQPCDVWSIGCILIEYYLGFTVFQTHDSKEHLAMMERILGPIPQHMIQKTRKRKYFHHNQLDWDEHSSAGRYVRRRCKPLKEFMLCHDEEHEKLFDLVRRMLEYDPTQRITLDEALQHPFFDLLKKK

MOLM-13 = test: Antiproliferative activity against human MOLM-13 cells assessed as inhibition of cell growth incubated for 72 hrs by Cell Titer-Glo luminescence assay; type: functional, cell-based; conditions: MOLM-13, 72 h
HEL = test: Antiproliferative activity against human HEL cells assessed as inhibition of cell growth incubated for 72 hrs by Cell Titer-Glo luminescence assay; type: functional, cell-based
Kasumi 1 = test: Antiproliferative activity against human Kasumi 1 cells assessed as inhibition of cell growth incubated for 72 hrs by Cell Titer-Glo luminescence assay; type: functional, cell-based; conditions: Kasumi 1, 72 h
[6] = Antiproliferative activity against human HEK293T cells assessed as inhibition of cell growth incubated for 72 hrs by Cell Titer-Glo luminescence assay; type: toxicity, cell-based, HEK-293T
[7] = biological target: Inhibitor of nuclear factor kappa-B kinase subunit epsilon (Homo sapiens) (UniProt Q14164); test: Inhibition of IKKepsilon (unknown origin) at 100 nM in presence of ATP relative to control
[8] = biological target: Dual specificity protein kinase CLK2 (Homo sapiens) (UniProt P49760); test: Inhibition of CLK2 (unknown origin) at 100 nM in presence of ATP relative to control
[9] = biological target: Serine/threonine-protein kinase TBK1 (Homo sapiens, UniProt Q9UHD2); test: Inhibition of TBK1 (unknown origin) in presence of ATP
[10] = biological target: Myosin light chain kinase family member 4 (Homo sapiens) (UniProt Q86YV6); conditions: dose 100.0 nM
Description: Inhibition of MYLK4 (unknown origin) at 100 nM in presence of ATP relative to control

[11] = biological target: Serine/threonine-protein kinase 17A (Homo sapiens) (UniProt Q9UEE5); conditions: dose 100.0 nM
Description: Inhibition of STK17A (unknown origin) at 100 nM in presence of ATP relative to control

[12] = biological target: Serine/threonine-protein kinase TBK1 (Homo sapiens) (UniProt Q9UHD2); conditions: dose 100.0 nM
Description: Inhibition of TBK1 (unknown origin) at 100 nM in presence of ATP relative to control

[13] = biological target: T4, Dual specificity protein kinase CLK4; conditions: dose 100.0 nM
Description: Inhibition of CLK4 (unknown origin) at 100 nM in presence of ATP relative to control

[14] = Half life in C57BL/6 mouse at 10 mg/kg,po administration and measured upto 24 hrs; type: ADME, organism-based; conditions: in vivo
[15] = Tmax in C57BL/6 mouse at 10 mg/kg,po administration and measured upto 24 hrs; type: ADME, organism-based; conditions: in vivo
[16] = Cmax in C57BL/6 mouse at 10 mg/kg,po administration and measured upto 24 hrs; type: ADME, organism-based; conditions: in vivo
[17] = AUClast in C57BL/6 mouse at 10 mg/kg,po administration and measured upto 24 hrs; type: ADME, organism-based; conditions: in vivo
[18] = biological target: Serine/threonine-protein kinase 17B (Homo sapiens) (UniProt O94768); test: Inhibition of STK17B (unknown origin) at 1 uM in presence of ATP relative to control
Chain of Serine/threonine-protein kinase 17B (Homo sapiens) (O94768 whole entry): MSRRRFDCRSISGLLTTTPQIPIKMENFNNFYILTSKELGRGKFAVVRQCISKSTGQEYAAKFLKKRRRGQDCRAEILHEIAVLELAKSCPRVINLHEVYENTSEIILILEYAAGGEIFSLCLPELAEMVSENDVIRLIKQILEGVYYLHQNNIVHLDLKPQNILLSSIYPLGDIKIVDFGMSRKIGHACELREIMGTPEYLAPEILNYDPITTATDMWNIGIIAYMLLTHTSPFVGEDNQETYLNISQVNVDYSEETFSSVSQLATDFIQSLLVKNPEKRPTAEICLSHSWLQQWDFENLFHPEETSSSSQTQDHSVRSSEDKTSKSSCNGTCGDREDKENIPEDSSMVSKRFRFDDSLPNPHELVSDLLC

[19] = biological target: Serine/threonine-protein kinase Nek3 (Homo sapiens, UniProt P51956); test: Inhibition of NEK3 (unknown origin) in presence of ATP
[20] = biological target: Serine/threonine-protein kinase Nek5 (Homo sapiens, UniProt Q6P3R8); test: Inhibition of NEK5 (unknown origin) in presence of ATP
Chain of Serine/threonine-protein kinase Nek5 (Q6P3R8 whole entry, the tested form may be a part): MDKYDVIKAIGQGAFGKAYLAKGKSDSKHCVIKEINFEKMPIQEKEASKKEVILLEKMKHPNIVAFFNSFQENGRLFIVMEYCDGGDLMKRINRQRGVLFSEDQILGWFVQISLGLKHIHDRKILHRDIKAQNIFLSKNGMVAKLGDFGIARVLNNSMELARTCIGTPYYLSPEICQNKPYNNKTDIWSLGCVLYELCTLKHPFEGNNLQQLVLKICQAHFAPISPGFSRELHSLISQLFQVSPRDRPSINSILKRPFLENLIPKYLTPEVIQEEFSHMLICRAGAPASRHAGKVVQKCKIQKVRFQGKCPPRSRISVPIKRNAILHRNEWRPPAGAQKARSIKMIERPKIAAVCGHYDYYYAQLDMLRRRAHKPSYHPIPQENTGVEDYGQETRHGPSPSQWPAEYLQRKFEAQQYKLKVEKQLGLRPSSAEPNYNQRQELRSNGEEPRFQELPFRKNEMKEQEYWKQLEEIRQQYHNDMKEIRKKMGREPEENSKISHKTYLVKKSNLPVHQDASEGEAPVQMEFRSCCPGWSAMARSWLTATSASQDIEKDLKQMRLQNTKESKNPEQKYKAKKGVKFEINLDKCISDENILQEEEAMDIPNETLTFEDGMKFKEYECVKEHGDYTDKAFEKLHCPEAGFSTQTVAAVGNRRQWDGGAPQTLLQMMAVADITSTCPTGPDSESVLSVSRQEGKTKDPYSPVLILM

LIM domain kinase 1 [21] = biological target: T5, LIM domain kinase 1 (Homo sapiens, UniProt P53667); test: Inhibition of LIMK1 (unknown origin) in presence of ATP
Target sequence in this assay (P53667 whole entry, the tested form may be a part): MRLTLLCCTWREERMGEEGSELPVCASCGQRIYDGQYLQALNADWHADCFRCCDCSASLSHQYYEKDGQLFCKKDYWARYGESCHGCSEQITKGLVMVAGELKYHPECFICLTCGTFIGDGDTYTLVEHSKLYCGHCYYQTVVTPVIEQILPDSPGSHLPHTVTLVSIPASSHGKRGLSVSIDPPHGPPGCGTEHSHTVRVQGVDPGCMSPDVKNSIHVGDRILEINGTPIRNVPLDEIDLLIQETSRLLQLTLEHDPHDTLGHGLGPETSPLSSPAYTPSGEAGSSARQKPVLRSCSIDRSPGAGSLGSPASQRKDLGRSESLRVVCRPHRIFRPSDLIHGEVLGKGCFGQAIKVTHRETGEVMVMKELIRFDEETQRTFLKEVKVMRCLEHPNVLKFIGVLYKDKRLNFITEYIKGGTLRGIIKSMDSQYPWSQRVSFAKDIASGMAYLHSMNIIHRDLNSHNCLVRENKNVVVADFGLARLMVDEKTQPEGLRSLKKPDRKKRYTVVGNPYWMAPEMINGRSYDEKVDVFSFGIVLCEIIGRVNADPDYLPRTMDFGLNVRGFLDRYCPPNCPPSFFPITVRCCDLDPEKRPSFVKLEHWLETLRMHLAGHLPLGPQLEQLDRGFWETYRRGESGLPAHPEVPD

[22] = biological target: Serine/threonine-protein kinase Nek5 (Homo sapiens) (UniProt Q6P3R8); conditions: dose 100.0 nM
Description: Inhibition of NEK5 (unknown origin) at 100 nM in presence of ATP relative to control

[23] = biological target: Serine/threonine-protein kinase Nek3 (Homo sapiens) (UniProt P51956); conditions: dose 100.0 nM
Chain of Serine/threonine-protein kinase Nek3 (Homo sapiens) (P51956 whole entry, the tested form may be a part): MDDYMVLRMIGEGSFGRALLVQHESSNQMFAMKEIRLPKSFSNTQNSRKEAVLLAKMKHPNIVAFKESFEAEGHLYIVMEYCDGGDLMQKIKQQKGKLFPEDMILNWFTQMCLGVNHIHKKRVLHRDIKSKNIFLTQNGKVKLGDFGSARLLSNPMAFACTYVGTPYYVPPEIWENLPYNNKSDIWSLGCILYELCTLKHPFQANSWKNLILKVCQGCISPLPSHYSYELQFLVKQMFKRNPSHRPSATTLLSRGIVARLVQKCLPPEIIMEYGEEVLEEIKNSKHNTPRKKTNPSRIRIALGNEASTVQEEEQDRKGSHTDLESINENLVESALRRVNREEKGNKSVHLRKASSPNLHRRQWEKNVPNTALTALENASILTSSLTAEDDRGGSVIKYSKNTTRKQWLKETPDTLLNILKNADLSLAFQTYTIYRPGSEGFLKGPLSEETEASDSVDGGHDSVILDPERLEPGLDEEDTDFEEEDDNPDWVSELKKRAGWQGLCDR
Description: Inhibition of NEK3 (unknown origin) at 100 nM in presence of ATP relative to control

LIM domain kinase 1 [24] = biological target: T5, LIM domain kinase 1; conditions: dose 100.0 nM
Target sequence in this assay (P53667 whole entry, looked up, the tested form may be a part): as the sequence (P53667 whole entry, the tested form may be a part) above
Description: Inhibition of LIMK1 (unknown origin) at 100 nM in presence of ATP relative to control

Row | SMILES | IC50 [1] [nM] | IC50 [2] [nM] | inhibition at 10 µM (CYP1A2) [%] | inhibition at 10 µM (CYP2C9) [%] | inhibition at 10 µM (CYP2D6) [%] | inhibition at 10 µM (CYP3A4) [%] | half-life [3] [min] | half-life [4] [min] | IC50 [5] [nM] | other results
1 | c1cc(-c2ccc3nc(N4CCCC4)ncc3c2)nc(Nc2ccc(N3CCOCC3)cc2)n1 | 43 | 46 | < 10 | 14 | < 10 | 22 | 69 | 35 | – | –
2 | COC(=O)N1CCC(c2ccc(Nc3nccc(-c4ccc5nc(N6C[C@@H]7C[C@H]6CO7)ncc5c4)n3)cn2)CC1 | 29 | – | – | – | – | – | – | – | – | –
3 | O=C(NC1CCNCC1)c1ccc(Nc2nccc(-c3ccc4nc(N5CCCC5)ncc4c3)n2)cc1 | 316 | – | – | – | – | – | – | – | – | –
4 | c1cc(-c2ccc3nc(N4CCCC4)ncc3c2)nc(Nc2ccc(OC3CCNCC3)cc2)n1 | > 10000 | – | – | – | – | – | – | – | – | –
5 | CN1CCN(c2ccc(Nc3nccc(-c4ccc5nc(N6CCCC6)ncc5c4)n3)cc2)CC1 | 51 | – | – | – | – | – | – | – | – | –
6 | c1cc(-c2ccc3nc(N4CCCC4)ncc3c2)nc(Nc2ccc(N3CCNCC3)cc2)n1 | 55 | 27 | 7 | 23 | 2 | 22 | > 100 | 9 | – | –
7 | CC(C)NC(=O)c1ccc(Nc2ncc(F)c(-c3ccc4nc(N5CCCC5)ncc4c3)n2)cc1 | 25 | > 1000 | < 10 | < 10 | < 10 | < 10 | 44 | 22 | > 10000 | –
8 | COC(=O)N1CCC(c2ccc(Nc3nccc(-c4ccc5nc(N6CCCC6)ncc5c4)n3)cn2)CC1 | 66 | – | – | – | – | – | – | – | – | –
9 | c1cc(-c2ccc3nc(N4CCCC4)ncc3c2)nc(Nc2ccc(N3CCNCC3)nc2)n1 | 18 | 2 | – | – | – | – | – | – | 124 | inhibition [7]: 45%; inhibition [8]: 50%; IC50 [9]: 135 nM; IC50 (MOLM-13): 1340 nM; IC50 (HEL): 1930 nM; IC50 (Kasumi 1): 1190 nM; IC50 at 72 h [6]: 11700 nM; inhibition [10]: 95%; inhibition [11]: 75%; inhibition [12]: 45%; inhibition [13]: 50%
10 | CC(C)NC(=O)c1cccc(Nc2nccc(-c3ccc4nc(N5CCCC5)ncc4c3)n2)c1 | 144 | – | – | – | – | – | – | – | – | –
11 | OCCN1C[C@@H]2C[C@H]1CN2c1ccc(Nc2ncc(F)c(-c3ccc4nc(N5CCCC5)ncc4c3)n2)cn1 | 48 | 13 | – | – | – | – | – | – | 160 | –
12 | CC(C)NC(=O)c1ccc(Nc2nccc(-c3ccc4nc(N5CCCC5)ncc4c3)n2)cc1 | 23 | 440 | < 10 | 14 | 3 | 16 | 45 | 37 | > 10000 | half-life [14]: 162 min; Tmax [15]: 60 min; Cmax [16]: 1000 nM; AUC(0-t) at 24 h [17]: 4.2 µM·h; IC50 (MOLM-13): 920 nM; IC50 (HEL): 2310 nM; IC50 (Kasumi 1): 7670 nM; IC50 at 72 h [6]: 99500 nM; inhibition [18]: 98%; IC50 [19]: 245 nM; IC50 [20]: 132 nM; IC50 (LIM domain kinase 1 [21]): 650 nM; inhibition [22]: 45%; inhibition [23]: 40%; inhibition (LIM domain kinase 1 [24]): 46%

Further compounds by falling IC50 [1], results first:

Row | IC50 [1] [nM] | IC50 [2] [nM] | inhibition at 10 µM (CYP1A2) [%] | inhibition at 10 µM (CYP2C9) [%] | inhibition at 10 µM (CYP2D6) [%] | inhibition at 10 µM (CYP3A4) [%] | half-life [3] [min] | half-life [4] [min] | IC50 [5] [nM] | SMILES | other results
13 | 21 | 17 | < 10 | < 10 | < 10 | < 10 | 97 | 83 | – | OCCN1CCC(n2cc(Nc3ncc(F)c(-c4ccc5nc(N6CCOCC6)ncc5c4)n3)cn2)CC1 | IC50 (MOLM-13): 1960 nM; IC50 (HEL): 2960 nM; IC50 (Kasumi 1): 760 nM; IC50 at 72 h [6]: 16200 nM
14 | 20 | 6 | 52 | < 10 | 5 | < 10 | 23 | > 100 | – | c1cc(-c2ccc3nc(N4CCCC4)ncc3c2)nc(Nc2cnn(C3CCNCC3)c2)n1 | –
15 | 20 | 68 | 12 | < 10 | 1 | < 10 | 16 | 59 | – | CC(C)NC(=O)c1ccc(Nc2nccc(-c3ccc4nc(N5CCOCC5)ncc4c3)n2)cc1 | –
16 | 20 | 4 | < 10 | 7 | < 10 | 11 | 12 | 16 | – | c1cc(-c2ccc3nc(N4CCOCC4)ncc3c2)nc(Nc2ccc(N3CCNCC3)cc2)n1 | –
17 | 19 | 6 | 11 | < 10 | < 10 | < 10 | 84 | 62 | – | c1cc(-c2ccc3nc(N4CCOCC4)ncc3c2)nc(Nc2cnn(C3CCNCC3)c2)n1 | –
18 | 17 | 40 | < 10 | < 10 | < 10 | < 10 | 20 | 69 | 1120 | OCCN1CCC(c2ccc(Nc3nccc(-c4ccc5nc(N6C[C@@H]7C[C@H]6CO7)ncc5c4)n3)cn2)CC1 | –
19 | 12 | 85 | 22 | 39 | 16 | 25 | 61 | 92 | > 10000 | CC(C)NC(=O)c1ccc(Nc2nccc(-c3ccc4nc(N5CCCC5)ncc4c3)n2)cn1 | –
